Experimental data taken from article PMC6889490, “General structural features that regulate integrin affinity revealed by atypical αVβ8” (Nature Communications, 2019).

System: αVβ8 headpiece
Assay: Hydrogen-deuterium exchange MS, αVβ8 headpiece
Conditions: 2.20 µM αVβ8, 6.67 µM TGF-β1 ligand peptide; from KD
Protocol: Two microliters of αVβ6 and αVβ8 stock solutions (23 and 33 µM, respectively), either alone or mixed with 100 µM TGF-β1 ligand peptide, were diluted 15-fold (to 1.53 and 2.20 µM, αVβ6 and αVβ8, respectively, and 6.67 µM TGF-β1 ligand peptide) with labeling buffer (Supplementary Table 1) at 21 °C to initiate deuterium exchange. […] At time points from 10 s to 240 m, an aliquot was removed and an equal volume of quench buffer (Supplementary Table 1) was added to adjust the pH to 2.5. Each sample (46 pmol αVβ6 or 66 pmol αVβ8) was immediately subjected to liquid chromatography-mass spectrometry analysis as described in the next paragraphs and in our PRIDE submission (PXD014348). For binding experiments, protein and ligand were allowed to equilibrate for 20 min at 21 °C before deuterium labeling.
Deuterated and control samples were digested in solution with pepsin (10 mg/ml, Sigma P6887; Lot#SLBL1721V) for 5 min on ice, and then injected into an M-class Acquity UPLC with HDX technology (Waters)[32]. […]
Peptides were identified using PLGS 3.0.1 (Waters, 720001408EN) using six replicates of undeuterated αVβ6 and six replicates of undeuterated αVβ8. […] The relative amount of deuterium in each peptide was determined by subtracting the centroid mass of the undeuterated form of each peptide from the deuteratered form, at each time point, for each condition. […]

predicted binding to integrin: 99.6%
Substance: G^213RRGDLATIHG^223 [TGF-β1 ligand peptide]
